Test [1] can be described thus: Cell cycle arrest in human A549 cells assessed as accumulation at G1-phase at 157 uM measured after 24 hrs by propidium iodide staining based flow cytometric analysis (reference value: 63%). Format: functional. A general note: In flow cytometry, cells or beads pass a laser one at a time.
The nature of test [2]: Cell cycle arrest in human A549 cells assessed as accumulation at S-phase at 26 uM measured after 24 hrs by propidium iodide staining based flow cytometric analysis (reference value: 7%). The test is classed as functional.
The nature of test [3]: Cell cycle arrest in human A549 cells assessed as accumulation at S-phase at 157 uM measured after 24 hrs by propidium iodide staining based flow cytometric analysis (reference value: 7%). Format: functional.
Test [4] in a line: Antiproliferative activity against human A549 cells measured after 72 hrs by WST1 assay. Format: functional, cell-based. Particulars: A549, 72 h. (In general: Tetrazolium dyes change colour on reduction, which living cells bring about.)
Test [5] can be described thus: Cell cycle arrest in human HCT116 cells assessed as accumulation at S-phase at 157 uM measured after 24 hrs by propidium iodide staining based flow cytometric analysis (reference value: 8%). The test is classed as functional. Conditions: HCT-116.
Test [6] is described as follows: Cell cycle arrest in human A549 cells assessed as accumulation at G2/M-phase at 26 uM measured after 24 hrs by propidium iodide staining based flow cytometric analysis (reference value: 27%). Format: functional.
Test [7] in a line: Cell cycle arrest in human HCT116 cells assessed as accumulation at S-phase at 26 uM measured after 24 hrs by propidium iodide staining based flow cytometric analysis (reference value: 8%). Particulars: HCT-116. The test is classed as functional.
Test [8] can be described thus: Cell cycle arrest in human HCT116 cells assessed as accumulation at G1-phase at 157 uM measured after 24 hrs by propidium iodide staining based flow cytometric analysis (reference value: 59%). Format: functional. Conditions: HCT-116.
A short description of test [9]: Cell cycle arrest in human HCT116 cells assessed as accumulation at G1-phase at 26 uM measured after 24 hrs by propidium iodide staining based flow cytometric analysis (reference value: 59%). Conditions: HCT-116. Format: functional.
Test [10] is described as follows: Cell cycle arrest in human A549 cells assessed as accumulation at G1-phase at 26 uM measured after 24 hrs by propidium iodide staining based flow cytometric analysis (reference value: 63%). Format: functional.
A short description of test [11]: Cell cycle arrest in human HCT116 cells assessed as accumulation at G2/M-phase at 26 uM measured after 24 hrs by propidium iodide staining based flow cytometric analysis (reference value: 30%). Format: functional. Particulars: HCT-116.
Test [12] deals with Histone deacetylase (HDAC1 and HDAC2) (Homo sapiens, UniProt Q13547+Q92769). Description: Inhibition of HDAC1/HDAC2 in human HeLa cell nuclear extract preincubated for 20 mins followed by addition of HDAC green as substrate measured after 60 mins by fluorescence analysis. The test is classed as cell-based.
Test [13] in a line: Cell cycle arrest in human A549 cells assessed as accumulation at G2/M-phase measured after 24 hrs by propidium iodide staining based flow cytometric analysis. The test is classed as functional.
The nature of test [14]: Antiproliferative activity against human HCT116 cells measured after 72 hrs by WST1 assay. Format: functional, cell-based. Particulars: HCT-116, 72 h.
Test [15] in a line: Cell cycle arrest in human HCT116 cells assessed as accumulation at G2/M-phase at 157 uM measured after 24 hrs by propidium iodide staining based flow cytometric analysis (reference value: 30%). Format: functional. Conditions: HCT-116.
Test [16] can be described thus: Cell cycle arrest in human A549 cells assessed as accumulation at G2/M-phase at 157 uM measured after 24 hrs by propidium iodide staining based flow cytometric analysis (reference value: 27%). Format: functional.

Bounds are passed on as bounds.

By EC50 is commonly meant the midpoint of the concentration-response curve. Read a low EC50 as a more potent agent. What is called IC50 is the concentration that gives 50% inhibition. Low values mean inhibition by little substance, high ones a need for much substance.

As for `N/C(=N\O)c1ccc(NC(=O)CNCCc2ccccc2)cc1`, the Activity in test [1] was determined as 22%; in [2], 7%; in [3], 9%; in [5], 5%; in test [6] it was 36%; in test [7], 7%. Besides, the Activity was 3% in test [8]; 31% in [9]; 54% in test [10]; 58% in test [11]; “Dose-dependent effect” in [13]; 87% in test [15]. Besides, in test [16], the Activity was 68%. In addition, the half-maximal effective concentration (EC50) was 157 µM in test [4] and 26 µM in [14]. In test [12], the IC50 was found to be 0.093 µM.
On to `N/C(=N\O)c1ccc(NC(=O)CCNCCc2ccccc2)cc1`, for which the EC50 in test [4] came out at 330 µM; in test [14], 69 µM. Moreover, the IC50 in test [12] worked out at 0.273 µM.
`N/C(=N\O)c1ccc(NC(=O)CCCCNCCc2ccccc2)cc1`: the figures for the EC50 in test [4] and in test [14] were > 1000 µM and 691 µM, respectively. The IC50 in test [12] is > 1 µM.
For `CCCCCCNCCCCC(=O)Nc1ccc(/C(N)=N/O)cc1`, the EC50 in test [4] and in test [14] was > 1000 µM throughout. Moreover, the IC50 in [12] is > 1 µM.
For the molecule `CCCCCCNC(=O)Nc1ccc(/C(N)=N/O)cc1`, the figures for the EC50 in [4] and in test [14] were > 1000 µM and 195 µM, respectively. In test [12], the IC50 stood at 0.599 µM.
On the same counts, the results for `N/C(=N\O)c1ccc(NC(=O)NCCc2ccccc2)cc1` are 463 µM, 91 µM and 0.304 µM.
As for `N/C(=N\O)c1ccc(NC(=O)CCCNCCc2ccccc2)cc1`, the EC50 in test [4] was > 1000 µM; in test [14], 218 µM. This molecule had an IC50 in test [12] of 0.697 µM.
Regarding `CCCCCCNCC(=O)Nc1ccc(/C(N)=N/O)cc1`, the figures for the EC50 in test [4] and in test [14] were 658 µM and 124 µM, respectively. Also, in test [12], the half-inhibitory concentration (IC50) stood at 0.381 µM.
On to `CCCCNCC(=O)Nc1ccc(/C(N)=N/O)cc1`, for which the EC50 turned out to be 395 µM in test [4] and 83 µM in test [14]. In test [12], this molecule had an IC50 of 0.282 µM.
`CCCCNCCCC(=O)Nc1ccc(/C(N)=N/O)cc1`: the EC50 in test [4] was > 1000 µM; in test [14] it was 267 µM. Moreover, the IC50 in [12] turned out to be 0.723 µM.
As for `CCCCCCNCCCC(=O)Nc1ccc(/C(N)=N/O)cc1`, the EC50 in test [4] was > 1000 µM; in test [14], 312 µM. For the same molecule, the IC50 in test [12] was > 1 µM.
Take `CCCCNCCC(=O)Nc1ccc(/C(N)=N/O)cc1`: the EC50 in test [4] was 881 µM; in test [14], 153 µM. In addition, the IC50 in [12] stood at 0.528 µM.
For `CCCCNC(=O)Nc1ccc(/C(N)=N/O)cc1`, in that order: > 1000 µM, 186 µM and 0.591 µM.
For `CCCCCCNCCC(=O)Nc1ccc(/C(N)=N/O)cc1`, the EC50 in test [4] is > 1000 µM; in test [14], 193 µM. For the same molecule, the 50% inhibitory concentration (IC50) in test [12] turned out to be 0.602 µM.
On the same counts, the results for `O=C(NCCc1ccccc1)Nc1ccc(C(=O)NO)cc1` are > 1000 µM, 175 µM and 0.582 µM.
On the same counts, the results for `CCCCNCCCCC(=O)Nc1ccc(/C(N)=N/O)cc1` are > 1000 µM, 516 µM and > 1 µM.

Values taken from ChEMBL document CHEMBL3860055, “Design, synthesis and in vitro evaluation of amidoximes as histone deacetylase inhibitors for cancer therapy” (Bioorg Med Chem Lett, 2016).
